Source: patent US11377442B2, “Small molecule agonists and antagonists of NR2F6 activity” (ZANDER THERAPEUTICS, INC., priority 2016, dated 2022)
Where “and” joins values, the source holds several entries; their conditions need not be identical. Equal entries are not always repeated. Where two headings read alike, the source gives them in different places.

Columns and labels:
Assay type in all cases: cell-based
NR2F6 LBD = target: T1, NR2F6 LBD (Homo sapiens, UniProt P10588); test: NR2F6 LBD transient transfection; details: LBD
T1 construct: expressed in transfected cells
T1 sequence (P10588 165-393 limits assumed): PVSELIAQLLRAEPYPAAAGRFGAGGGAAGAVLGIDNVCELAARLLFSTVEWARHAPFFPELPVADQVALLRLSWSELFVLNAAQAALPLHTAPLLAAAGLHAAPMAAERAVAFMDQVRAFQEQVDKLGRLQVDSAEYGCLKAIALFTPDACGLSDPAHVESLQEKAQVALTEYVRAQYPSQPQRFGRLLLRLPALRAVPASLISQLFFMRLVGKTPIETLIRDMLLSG
Summary of the method: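 LBD-transfected cells treated at 40, 10, 2 and 0.5 μM (4 replicates); cytotoxicity measured in parallel, normalized to DMSO (0%) and zero signal (100%). Higher concentrations excluded where signal loss reflected toxicity.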

Renilla = Renilla signal in NR2F6 agonist screening, cmpd/DMSO; details: Renilla, F4
NR2F6 = target: T2, NR2F6 (Homo sapiens, UniProt P10588); test: NR2F6 agonist screening, Firefly signal cmpd/DMSO
T2 construct: expressed in transfected cells; also transient transfection
T2 sequence (P10588 1-404): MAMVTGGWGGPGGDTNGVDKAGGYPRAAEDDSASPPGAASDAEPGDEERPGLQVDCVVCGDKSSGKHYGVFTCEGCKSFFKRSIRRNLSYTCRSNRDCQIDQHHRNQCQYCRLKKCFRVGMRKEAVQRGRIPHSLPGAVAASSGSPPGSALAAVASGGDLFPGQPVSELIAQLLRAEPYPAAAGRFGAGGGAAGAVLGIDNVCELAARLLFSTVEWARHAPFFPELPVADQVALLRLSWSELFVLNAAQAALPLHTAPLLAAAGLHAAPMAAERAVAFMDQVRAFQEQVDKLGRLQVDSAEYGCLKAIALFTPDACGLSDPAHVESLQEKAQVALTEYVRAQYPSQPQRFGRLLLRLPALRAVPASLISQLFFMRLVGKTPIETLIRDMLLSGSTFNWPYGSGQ

HEK293 pGL4 = test: Firefly_pGL signal, cmpd/DMSO (pGL4 control cells); details: Homo sapiens
[1] = read-out: Renilla, F4, cmpd/DMSO (mean)
[2] = 1% FBS, read-out: Renilla, F4, 1% FBS, cmpd/DMSO (mean)
[3] = 10% FBS, read-out: Renilla, F4, 10% FBS, cmpd/DMSO (mean)
[4] = HEK293, 0.5 uM, pGL4, read-out: Firefly pGL4, cmpd/DMSO (mean)
[5] = HEK293, 2 uM, pGL4, read-out: Firefly pGL4, cmpd/DMSO (mean)
[6] = HEK293, 10 uM, pGL4, read-out: Firefly pGL4, cmpd/DMSO (mean)
[7] = HEK293, 40 uM, pGL4, read-out: Firefly pGL4, cmpd/DMSO (mean)
[8] = HEK293, pGL4, 1% FBS, 0.5 uM, read-out: Firefly, pGL4, 1% FBS, cmpd/DMSO (mean)
[9] = HEK293, pGL4, 1% FBS, 2 uM, read-out: Firefly, pGL4, 1% FBS, cmpd/DMSO (mean)
[10] = HEK293, pGL4, 1% FBS, 10 uM, read-out: Firefly, pGL4, 1% FBS, cmpd/DMSO (mean)
[11] = HEK293, pGL4, 10% FBS, 0.5 uM, read-out: Firefly, pGL4, 10% FBS, cmpd/DMSO (mean)
[12] = HEK293, pGL4, 10% FBS, 2 uM, read-out: Firefly, pGL4, 10% FBS, cmpd/DMSO (mean)
[13] = HEK293, pGL4, 10% FBS, 10 uM, read-out: Firefly, pGL4, 10% FBS, cmpd/DMSO (mean)

COCCCN[C@H]1CS(=O)(=O)C[C@@H]1S(=O)(=O)c1ccc(Cl)cc1 [Compound D126]
Firefly LBD, cmpd/DMSO (mean) (NR2F6 LBD; 0.5 uM): 1.6 | Firefly LBD, cmpd/DMSO (mean) (NR2F6 LBD; 2 uM): 1.5 | Firefly LBD, cmpd/DMSO (mean) (NR2F6 LBD; 10 uM): 2.9 | Firefly LBD, cmpd/DMSO (mean) (NR2F6 LBD; 40 uM): 2.1 | fold induction at 0.5 µM (Renilla; [1]): 1.1 | fold induction at 2 µM (Renilla; [1]): 1.2 | fold induction at 10 µM (Renilla; [1]): 1.6 | fold induction at 40 µM (Renilla; [1]): 1.6 | fold induction at 0.5 µM (Renilla; [2]): 1.2 | fold induction at 2 µM (Renilla; [2]): 1.2 | fold induction at 10 µM (Renilla; [2]): 1.5 | fold induction at 40 µM (Renilla; [2]): 1.8 | fold induction at 0.5 µM (Renilla; [3]): 1 | fold induction at 2 µM (Renilla; [3]): 1.1 | fold induction at 10 µM (Renilla; [3]): 1.7 | fold induction at 40 µM (Renilla; [3]): 2.8 | Firefly F4, cmpd/DMSO (mean) (NR2F6; 0.5 uM): 1.0 | Firefly F4, cmpd/DMSO (mean) (NR2F6; 2 uM): 1.8 | Firefly F4, cmpd/DMSO (mean) (NR2F6; 10 uM): 4.5 | Firefly F4, cmpd/DMSO (mean) (NR2F6; 40 uM): 2.3 | F4, Firefly/Renilla for S/B(F4) > 3 (NR2F6; 1% FBS, 10 uM): 2.0 | Firefly, F4/pGL4 for S/B(F4) > 3 (NR2F6; 1% FBS, 10 uM): 1.6 | F4, Firefly/Renilla for S/B(F4) > 3 (NR2F6; 10% FBS, 40 uM): 3.0 | Firefly, F4/pGL4 for S/B(F4) > 3 (NR2F6; 10% FBS, 40 uM): 2.1 | Firefly, F4, 1% FBS, cmpd/DMSO (mean) (NR2F6; 1% FBS, 0.5 uM): 0.7 | Firefly, F4, 1% FBS, cmpd/DMSO (mean) (NR2F6; 1% FBS, 2 uM): 1.5 | Firefly, F4, 1% FBS, cmpd/DMSO (mean) (NR2F6; 1% FBS, 10 uM): 3.1 | Firefly, F4, 1% FBS, cmpd/DMSO (mean) (NR2F6; 1% FBS, 40 uM): 0.6 | Firefly, F4, 10% FBS, cmpd/DMSO (mean) (NR2F6; 10% FBS, 0.5 uM): 1.4 | Firefly, F4, 10% FBS, cmpd/DMSO (mean) (NR2F6; 10% FBS, 2 uM): 1.0 | Firefly, F4, 10% FBS, cmpd/DMSO (mean) (NR2F6; 10% FBS, 10 uM): 2.9 | Firefly, F4, 10% FBS, cmpd/DMSO (mean) (NR2F6; 10% FBS, 40 uM): 8.3 | fold induction at 0.5 µM (HEK293 pGL4; [4]): 1.2 | fold induction at 2 µM (HEK293 pGL4; [5]): 1.2 | fold induction at 10 µM (HEK293 pGL4; [6]): 3 | fold induction at 40 µM (HEK293 pGL4; [7]): 0.8 | fold induction at 0.5 µM (HEK293 pGL4; [8]): 1.4 | fold induction at 2 µM (HEK293 pGL4; [9]): 1.8 | fold induction at 10 µM (HEK293 pGL4; [10]): 2 | fold induction at 40 µM (HEK293 pGL4; HEK293, pGL4, 1% FBS, 40 uM, read-out: Firefly, pGL4, 1% FBS, cmpd/DMSO (mean)): 1.6 | fold induction at 0.5 µM (HEK293 pGL4; [11]): 1.1 | fold induction at 2 µM (HEK293 pGL4; [12]): 1.1 | fold induction at 10 µM (HEK293 pGL4; [13]): 1.8 | fold induction at 40 µM (HEK293 pGL4; HEK293, pGL4, 10% FBS, 40 uM, read-out: Firefly, pGL4, 10% FBS, cmpd/DMSO (mean)): 3.9

Cc1cccc(CN[C@H]2CS(=O)(=O)C[C@@H]2S(=O)(=O)c2ccc(Cl)cc2)c1 [Compound D127]
Firefly LBD, cmpd/DMSO (mean) (NR2F6 LBD; 0.5 uM): 1.2 | Firefly LBD, cmpd/DMSO (mean) (NR2F6 LBD; 2 uM): 1.2 | Firefly LBD, cmpd/DMSO (mean) (NR2F6 LBD; 10 uM): 2.3 | Firefly LBD, cmpd/DMSO (mean) (NR2F6 LBD; 40 uM): 2.1 | fold induction at 0.5 µM (Renilla; [1]): 1 | fold induction at 2 µM (Renilla; [1]): 1 | fold induction at 10 µM (Renilla; [1]): 1.2 | fold induction at 40 µM (Renilla; [1]): 1.3 | fold induction at 0.5 µM (Renilla; [2]): 1.1 | fold induction at 2 µM (Renilla; [2]): 1.2 | fold induction at 10 µM (Renilla; [2]): 1.8 | fold induction at 40 µM (Renilla; [2]): 1.5 | fold induction at 0.5 µM (Renilla; [3]): 1 | fold induction at 2 µM (Renilla; [3]): 1.1 | fold induction at 10 µM (Renilla; [3]): 1.7 | Firefly F4, cmpd/DMSO (mean) (NR2F6; 0.5 uM): 1.2 | Firefly F4, cmpd/DMSO (mean) (NR2F6; 2 uM): 1.1 | Firefly F4, cmpd/DMSO (mean) (NR2F6; 10 uM): 2.2 | Firefly F4, cmpd/DMSO (mean) (NR2F6; 40 uM): 2.0 | F4, Firefly/Renilla for S/B(F4) > 3 (NR2F6; 1% FBS, 10 uM): 2.7 | Firefly, F4/pGL4 for S/B(F4) > 3 (NR2F6; 1% FBS, 10 uM): 1.8 | F4, Firefly/Renilla for S/B(F4) > 3 (NR2F6; 1% FBS, 40 uM): 1.9 | Firefly, F4/pGL4 for S/B(F4) > 3 (NR2F6; 1% FBS, 40 uM): 2.4 | F4, Firefly/Renilla for S/B(F4) > 3 (NR2F6; 10% FBS, 10 uM): 3.2 | Firefly, F4/pGL4 for S/B(F4) > 3 (NR2F6; 10% FBS, 10 uM): 2.1 | F4, Firefly/Renilla for S/B(F4) > 3 (NR2F6; 10% FBS, 40 uM): 2.1 | Firefly, F4/pGL4 for S/B(F4) > 3 (NR2F6; 10% FBS, 40 uM): 2.3 | Firefly, F4, 1% FBS, cmpd/DMSO (mean) (NR2F6; 1% FBS, 0.5 uM): 1.0 and 1.3 | Firefly, F4, 1% FBS, cmpd/DMSO (mean) (NR2F6; 1% FBS, 2 uM): 1.8 and 0.9 | Firefly, F4, 10% FBS, cmpd/DMSO (mean) (NR2F6; 10% FBS, 0.5 uM): 1.2 | Firefly, F4, 10% FBS, cmpd/DMSO (mean) (NR2F6; 10% FBS, 2 uM): 1.4 and 0.7 | fold induction at 0.5 µM (HEK293 pGL4; [4]): 1 | fold induction at 2 µM (HEK293 pGL4; [5]): 1.4 | fold induction at 10 µM (HEK293 pGL4; [6]): 1.8 | fold induction at 40 µM (HEK293 pGL4; [7]): 2.6 | fold induction at 0.5 µM (HEK293 pGL4; [8]): 1.3 | fold induction at 2 µM (HEK293 pGL4; [9]): 1.9 | fold induction at 10 µM (HEK293 pGL4; [10]): 2.7 | fold induction at 0.5 µM (HEK293 pGL4; [11]): 1.2 | fold induction at 2 µM (HEK293 pGL4; [12]): 1.7 | fold induction at 10 µM (HEK293 pGL4; [13]): 2.7
